This assay addresses T1, A1 receptor (Homo sapiens, UniProt P30542).
T1 sequence (P30542 1-326): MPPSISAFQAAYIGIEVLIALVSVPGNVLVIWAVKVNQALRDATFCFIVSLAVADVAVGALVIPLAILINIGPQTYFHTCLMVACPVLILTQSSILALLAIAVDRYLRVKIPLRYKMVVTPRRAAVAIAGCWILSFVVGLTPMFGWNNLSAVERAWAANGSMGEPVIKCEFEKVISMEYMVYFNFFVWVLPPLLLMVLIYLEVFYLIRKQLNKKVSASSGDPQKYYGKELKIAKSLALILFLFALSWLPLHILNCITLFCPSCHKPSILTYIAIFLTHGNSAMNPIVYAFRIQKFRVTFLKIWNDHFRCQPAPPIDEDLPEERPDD
Kind of assay: Adenosine A1 receptor affinity (Ki potency). It is filed as binding. From the text: As used herein, the term “A1 agonist” refers to an A1 agonist that has an affinity to the A1 receptor while simultaneously having a lower affinity for the A2 and A3 adenosine receptors.

SMILES strings stand for the structures. Structures can show the parent of a compound that is named as a salt.

`O=S(=O)(O)OC[C@H]1O[C@@H](n2cnc3c(NC4CCCCC4)nc(Cl)nc32)[C@H](O)[C@@H]1O` [Compound G, sodium((2R,3S,4R,5R)-5-(2-chloro-6-(cyclohexylamino)-9H-purin-9-yl)-3,4-dihydroxytetrahydrofuran-2-yl)methyl sulfate] displayed a Ki of 1.36 nM. The figure for `O=S(=O)(O)OC[C@H]1O[C@@H](n2cnc3c(NC4CCCC4)ncnc32)[C@H](O)[C@@H]1O` [Compound C, sodium((2R,3S,4R,5R)-5-(6-(cyclopentylamino)-9H-purin-9-yl)-3,4-dihydroxytetrahydrofuran-2-yl)methyl sulfate] is 4.05 nM; for `O=[N+]([O-])OC[C@H]1O[C@@H](n2cnc3c(NC4CCOC4)ncnc32)[C@H](O)[C@@H]1O` (stereo partly drawn) [Compound D, ((2R,3S,4R,5R)-3,4-dihydroxy-5-(6-(tetrahydrofuran-3-ylamino)-9H-purin-9-yl)tetrahydrofuran-2-yl)methyl nitrate] it is 10.6 nM. Under `O=[N+]([O-])OC[C@H]1O[C@@H](n2cnc3c(NC4CC5CCC4C5)ncnc32)[C@H](O)[C@@H]1O` (stereo partly drawn) [Compound F, ((2R,3S,4R,5R)-5-(6-(bicycle-[2.2.1]-heptan-2-ylamino)-9H-purin-9-yl)-3,4-dihydroxytetrahydrofuran-2-yl)methyl nitrate] stands 1.47 nM; under `O=[N+]([O-])OC[C@H]1O[C@@H](n2cnc3c(NC4CCCCC4)ncnc32)[C@H](O)[C@@H]1O` [Compound E, ((2R,3S,4R,5R)-5-(6-(cyclohexylamino)-9H-purin-9-yl)-3,4-dihydroxytetrahydrofuran-2-yl)methyl nitrate], 1.32 nM.

The Ki is a measure of affinity in units of concentration, obtained from inhibition or displacement.

For the origin of these results see patent publication US8440639B2, “Combination compositions for reducing intraocular pressure” (Inotek Pharmaceuticals Corporation, priority 2010, dated 2013).
